This note sets out measurements from patent US11884659B1, “1-cyclopropyl-6-fluoro-4-oxo-7-(4-((5-(quinolin-2-ylmethyleneamino)-2-thioxo-1,3,4- thiadiazol-3(2H)-yl)methyl) piperazin-1-yl)-1,4-dihydroquinoline-3-carboxylic acid as an anti-inflammatory compound” (KING FAISAL UNIVERSITY, priority 2023, dated 2024).

In series [1] the target is BSA (Bos taurus, UniProt P02769). Briefly: Bovine Serum Albumin Assay (BSA), inhibition of heat-induced protein denaturation. The following applies: 20, 40, 60, 80 and 100 μg/mL; 0.4% w/v BSA, pH 6.4, 72° C. for 10 minutes; turbidity at 660 nm. As to the method:
Bovine Serum Albumin Assay (BSA)
In vitro-inflammatory activities of the tested samples were determined using a modified method of the BSA assay reported by Williams et al. BSA solution (0.4%, w/v) was prepared in Tris Buffered Saline. The pH was adjusted to 6.4 with glacial acetic acid. Different dilutions of 20, 40, 60, 80, and 100 μg/mL of 1-cyclopropyl-6-fluoro-4-oxo-7-(4-((5-(quinolin-2-ylmethyleneamino)-2-thioxo-1,3,4-thiadiazol-3(2H)-yl)methyl)piperazin-1-yl)-1,4-dihydroquinoline-3-carboxylic acid (IV) the stock solutions were added to test tubes containing 1 mL of 0.4%, w/v BSA buffer solution. Both negative (solvent) and positive (aspirin) controls were assayed in a similar manner. The solutions were then heated in a water bath at 72° C. for 10 minutes and cooled for 20 minutes under laboratory conditions. The turbidity of the solutions (level of protein precipitation) was measured at 660 nm in Spectrophotometer (V-770 UV-Visible/NIR Spectrophotometer). The percentage inhibition of precipitation (protein denaturation) was determined relative to the negative control using the following equation:
[formula] [formula] Anti-Inflammatory Activity

SMILES strings stand for the structures.

BSA, sequence (P02769 25-607): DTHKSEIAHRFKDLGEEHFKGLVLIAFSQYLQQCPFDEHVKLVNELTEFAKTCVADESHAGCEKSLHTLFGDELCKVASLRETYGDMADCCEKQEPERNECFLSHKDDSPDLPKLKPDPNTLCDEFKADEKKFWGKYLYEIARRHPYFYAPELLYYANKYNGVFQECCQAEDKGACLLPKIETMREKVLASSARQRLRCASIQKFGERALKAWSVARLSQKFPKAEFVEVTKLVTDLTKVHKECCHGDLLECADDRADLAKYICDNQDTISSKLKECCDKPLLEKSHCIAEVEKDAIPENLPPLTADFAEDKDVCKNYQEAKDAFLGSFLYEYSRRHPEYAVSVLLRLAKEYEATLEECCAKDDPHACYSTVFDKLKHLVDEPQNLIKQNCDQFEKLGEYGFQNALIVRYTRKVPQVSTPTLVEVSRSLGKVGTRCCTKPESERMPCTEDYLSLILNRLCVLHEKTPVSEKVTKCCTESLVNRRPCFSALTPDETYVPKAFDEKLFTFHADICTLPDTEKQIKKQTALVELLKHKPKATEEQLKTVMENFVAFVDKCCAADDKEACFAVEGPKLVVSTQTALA

With `O=C(O)c1cn(C2CC2)c2cc(N3CCN(Cn4nc(/N=C/c5ccc6ccccc6n5)sc4=S)CC3)c(F)cc2c1=O` [IV, 1-cyclopropyl-6-fluoro-4-oxo-7-(4-((5-(quinolin-2-ylmethyleneamino)-2-thioxo-1,3,4-thiadiazol-3(2H)-yl)methyl)piperazin-1-yl)-1,4-dihydroquinoline-3-carboxylic acid], the melting point was in the range of 232 to 235 °C. Moreover, the “in vitro anti-inflammatory activity (inhibition of protein denaturation)” value in series [1] was “considerable anti-inflammatory effect”.

As usually defined, the melting point is the temperature of the solid-liquid transition.
